According to paper PMC5385157 (Neuropharmacology, 2016):
“And” between values parts separate entries of the source, which are not always exact repeats. Identical values can stand only once. Like-named read-outs stand apart in the source and are kept apart here. Blank lines part the entries; values can stand above or below the compound they belong to.

Tests used:
HA-α2AAR [1] = target: T1, HA-α2AAR (Mus musculus, UniProt Q01338); conditions: 1 µM
T1 sequence (Q01338 1-465): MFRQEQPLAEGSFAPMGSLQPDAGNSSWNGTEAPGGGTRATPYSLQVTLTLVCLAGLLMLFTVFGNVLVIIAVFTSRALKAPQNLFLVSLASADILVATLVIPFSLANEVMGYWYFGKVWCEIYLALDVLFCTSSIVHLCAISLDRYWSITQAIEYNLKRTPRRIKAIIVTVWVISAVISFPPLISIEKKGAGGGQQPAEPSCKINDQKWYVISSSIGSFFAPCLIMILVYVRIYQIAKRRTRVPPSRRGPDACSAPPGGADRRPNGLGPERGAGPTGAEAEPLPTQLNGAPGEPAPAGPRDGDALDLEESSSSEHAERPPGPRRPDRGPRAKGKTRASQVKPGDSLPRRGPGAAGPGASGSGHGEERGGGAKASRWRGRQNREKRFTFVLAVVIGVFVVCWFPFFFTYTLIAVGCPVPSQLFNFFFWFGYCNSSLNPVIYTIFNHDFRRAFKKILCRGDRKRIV

[2] = clinical blood plasma level; ref Baldessarini and Tarazi (2006); cited from earlier work
α2AAR/Arr3 interaction = α2AAR/Arr3 interaction (Mus musculus, UniProt Q01338); conditions: 1 µM, live HEK 293 cells
Chain of α2AAR/Arr3 interaction (P32121 whole entry partner, one chain of several): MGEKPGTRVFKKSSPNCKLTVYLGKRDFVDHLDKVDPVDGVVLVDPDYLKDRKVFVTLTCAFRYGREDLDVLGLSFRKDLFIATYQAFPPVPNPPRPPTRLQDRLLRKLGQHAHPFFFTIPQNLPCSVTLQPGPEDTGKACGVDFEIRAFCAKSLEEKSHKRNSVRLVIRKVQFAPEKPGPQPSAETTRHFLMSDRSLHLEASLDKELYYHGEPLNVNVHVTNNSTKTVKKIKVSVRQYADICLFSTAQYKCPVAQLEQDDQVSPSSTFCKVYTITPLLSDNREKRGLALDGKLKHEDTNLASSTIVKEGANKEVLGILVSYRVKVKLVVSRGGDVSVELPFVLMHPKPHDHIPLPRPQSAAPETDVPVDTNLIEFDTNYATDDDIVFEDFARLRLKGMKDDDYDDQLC

human α2AAR = conditions: ref NIMH Psychoactive Drug Screening Program (PDSP) Ki Database, cited from earlier work
HA-α2AAR [3] = target: T1, HA-α2AAR; conditions: 1 µM, 30 min
[4] = system: α2AAR-mediated activation of the ERK1/2 MAP kinase pathway; assay: Western blot for phospho-ERK1/2 in WT MEF cells; format: cell-based, murine; conditions: 1 µM
α2AAR = target: T2, α2AAR (Mus musculus, UniProt Q01338); assay: cAMP assay; format: cell-based, murine; conditions: ligand 10 µM, 10 µM forskolin, 20 min
T2 sequence (Q01338 1-465): T1 sequence (Q01338 1-465)

- receptor loss from the cell surface (HA-α2AAR [1]; WT MEF cells): ~30%
- α2AAR endocytic response in arrestin-null (Arr2,3−/−) MEF cells (HA-α2AAR [1]; 5, 10, 30 min): lost
- α2AAR/Arr3 interaction (FLIM-FRET efficiency) (α2AAR/Arr3 interaction): robust α2AAR/Arr3 interaction
- α2AAR endocytosis (intracellular punctae) (HA-α2AAR [3]): robust α2AAR endocytosis
SMILES: CN(C)CCCN1c2ccccc2Sc2ccc(Cl)cc21 [Chlorpromazine, chlorpromazine]
- Therapeutic range [2]: 90 to 2350 nM
- Ki (human α2AAR; read-out: Reported values at human α2AAR, Avg.): 0.251 µM
- Ki (human α2AAR; read-out: Reported values at human α2AAR, Range): 0.078 to 0.558 µM

SMILES: CN1CCN(C2=Nc3cc(Cl)ccc3Nc3ccccc32)CC1 [Clozapine, clozapine]
- ERK1/2 activation (pERK1/2) [4]: unable to detect any ERK1/2 activation

SMILES: OCCN1CCN(CCCN2c3ccccc3Sc3ccc(C(F)(F)F)cc32)CC1 [Fluphenazine, fluphenazine]
- Therapeutic range [2]: 20–100 ng/ml and 50–230 nM

- Gαi-mediated inhibition of cAMP production (α2AAR): ~50%
SMILES: NC[C@H](O)c1ccc(O)c(O)c1 [NE, norepinephrine]
